Results on 3 compounds are retold here after ChEMBL document CHEMBL1806359, “Synthesis and evaluation of bidentate ligands designed to interact with PDZ domains” (Bioorg Med Chem, 2011).

The target in this assay is Disks large homolog 4 (Mus musculus) (UniProt Q62108). The assay is described as follows: Binding affinity to Swiss mouse brain PSD95 domain assessed as inhibition of PSD95-5-HT2A receptor C-terminal decapeptide interaction after overnight incubation by chemiluminescence assay. The class given is tissue-based.
Chain of Disks large homolog 4 (Mus musculus) (Q62108 whole entry, looked up, the tested form may be a part): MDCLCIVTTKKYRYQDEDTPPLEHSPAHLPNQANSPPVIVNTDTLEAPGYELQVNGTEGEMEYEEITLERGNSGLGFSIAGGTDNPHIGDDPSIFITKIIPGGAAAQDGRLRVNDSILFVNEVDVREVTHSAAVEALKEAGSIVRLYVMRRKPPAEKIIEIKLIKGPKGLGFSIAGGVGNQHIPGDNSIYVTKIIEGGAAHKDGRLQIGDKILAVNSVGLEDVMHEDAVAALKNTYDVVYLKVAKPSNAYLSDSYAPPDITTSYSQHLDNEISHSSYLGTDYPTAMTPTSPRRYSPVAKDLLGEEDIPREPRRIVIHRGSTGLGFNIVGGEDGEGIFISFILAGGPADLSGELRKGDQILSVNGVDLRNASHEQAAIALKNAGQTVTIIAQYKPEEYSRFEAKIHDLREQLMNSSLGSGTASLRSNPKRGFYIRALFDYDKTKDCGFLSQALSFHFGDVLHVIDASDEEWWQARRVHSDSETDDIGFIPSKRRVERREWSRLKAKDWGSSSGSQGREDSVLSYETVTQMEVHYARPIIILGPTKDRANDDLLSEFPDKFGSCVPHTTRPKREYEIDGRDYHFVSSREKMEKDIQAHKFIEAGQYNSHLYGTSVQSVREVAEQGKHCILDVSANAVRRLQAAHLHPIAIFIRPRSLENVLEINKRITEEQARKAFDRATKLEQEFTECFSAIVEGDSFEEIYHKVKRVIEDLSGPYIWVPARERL
In the case of `Cc1c(C(=O)NCCNC(=O)[C@@H](N)Cc2c[nH]c3ccccc23)[nH]c2ccc(C(=O)O)cc12`, the inhibition entry was “Dose-dependent effect”.
Under `Cc1c(C(=O)O)[nH]c2ccc(C(=O)O)cc12` stands “Dose-dependent effect”; under `Cc1c(C(=O)NCCN)[nH]c2ccc(C(=O)O)cc12`, “Dose-dependent effect”.
